Laboratory results taken from US7740867B2, “Method for identification of virulence determinants” (priority 2000, dated 2010).

Key:
[1] = test system: M. paratuberculosis strain K-10; test: Susceptibility of growing and non-growing M. paratuberculosis in broth culture to antimicrobial agents; type: cell-based, Mycobacterium paratuberculosis
Experimental: Antimicrobial agents (antibiotics) tested were the fluoroquinolone Bay y 3118, and D-cycloserine. The aminoglycoside amikacin which kills both growing and non-growing M. paratuberculosis, was included as a control. M. paratuberculosis strain K-10 was grown in complete Middlebrook 7H9 medium containing mycobactin J as described above to an optical density (OD600) of 0.3 to 0.4. For non growing conditions, cells (200 ml) were harvested at room temperature, washed in MSS (Middlebrook 7H9 salt solution: 1.0 g/L KH2PO4, 0.05 g/L MgSO4, NH4SO4, 2.5 g/L Na2HPO4, 0.0005 g/L CaCl2, 0.001 g/L ZnSO4, and 0.001 g/L CuSO4), and resuspended in MSS as a single-cell suspension (Williams et al., J. Clin. Microbiol., 37:304-309, 1999). Aliquots (10 ml at a cell density of 2×10^8 CFU/mL) were placed in sterile tissue culture flasks, and antibiotics were added at the following final concentrations Bay y 3118: 0.075 μg/mL (5×MIC) and 0.3 μg/mL (20×MIC); D-cyloserine: 125 μg/mL (5×MIC) and 500 μg/mL (20×MIC); amikacin: 10 μg/mL (5×MIC), and 40 μg/mL (20×MC). These cultures and a control without antibiotics (0×) were incubated at 37° C. and appropriate dilutions were plated in triplicate onto complete Middlebrook 7H9 medium at various time points. […] For growing conditions, cells were treated as described except that the growth control (0×) was diluted 1:10 and all cells were washed and resuspended in complete medium instead of MSS. The cells were also inoculated into MSS (no-growth control).

[2] = test system: M. paratuberculosis strain K-10; test: Minimal inhibitory concentration (MIC) determination; type: cell-based, Mycobacterium paratuberculosis
Description: The exact amount of the antimicrobial used will vary with the particular substance and organism in question. In general, the concentration of the antimicrobial should exceed the approximate minimal inhibitory concentration (MIC) for the particular organism being studied. Determination of MIC is routine in the art and can be accomplished by the skilled technician without undue experimentation. […] In another embodiment, the concentration of Bay y 3118 is 5× the MIC. […] In yet another embodiment, the concentration of D-cycloserine is 5× the MIC.

[3] = test system: Mycobacterium avium within human macrophages; conditions: reported by Bermudez et al., 1999; cited from earlier work
[4] = 5× the MIC, MSS salt solution (non growing conditions), 37° C., FIG. 3
[5] = 5× the MIC, complete Middlebrook 7H9 medium (growing conditions), 37° C., FIG. 3

| SMILES | susceptibility of bacteria in stasis compared with growing bacteria ([1]; concentration not given (5× and 20× MIC tested)) | effect on growing bacteria ([1]; concentration not given (5× and 20× MIC tested), growing conditions) | effect on non growing bacteria ([1]; concentration not given (5× and 20× MIC tested), non growing conditions) | MIC [2] | killing of growing versus non-growing Mycobacterium avium within human macrophages [3] | effect on non growing bacteria [1, 4] | effect on growing bacteria [1, 5] | effect on non growing bacteria ([1]; 20× the MIC, MSS salt solution (non growing conditions), 37° C., FIG. 3) | effect on growing bacteria ([1]; 20× the MIC, complete Middlebrook 7H9 medium (growing conditions), 37° C., FIG. 3) |
| --- | --- | --- | --- | --- | --- | --- | --- | --- | --- |
| NCC[C@H](O)C(=O)N[C@@H]1C[C@H](N)[C@@H](O[C@H]2O[C@H](CN)[C@@H](O)[C@H](O)[C@H]2O)[C@H](O)[C@H]1O[C@H]1O[C@H](CO)[C@@H](O)[C@H](N)[C@H]1O [Amikcin, amikacin] | particularly more susceptible | bactericidal | bactericidal | – | – | – | – | – | – |
| Cl.O=C(O)c1cn(C2CC2)c2c(Cl)c(N3C[C@@H]4CCCN[C@@H]4C3)c(F)cc2c1=O [Bay y 3118] | – | – | – | approximately 0.015 μg/mL | kill growing but not non-growing | does not kill non growing bacteria | has a bactericidal action on growing bacteria | – | – |
| N[C@@H]1CONC1=O [D-cycloserine] | – | – | – | approximately 25 μg/mL | – | moderate bactericidal effect | moderate bactericidal effect | moderate bactericidal effect | moderate bactericidal effect |
